Data on 21 compounds can be found in US10023602B2, “Hamamelitannin analogues and uses thereof” (Universiteit Gent, priority 2014, dated 2018).

The test system of assay [1] is methicillin resistant S. aureus Mu50 strain (S. aureus ATCC700699) biofilm. Put plainly: Biofilm susceptibility to vancomycin, pre-treatment regimen (biofilm formed in presence of compound, then vancomycin). Type of assay: cell-based. Particulars: for Pretreat (100 μM): percentage Colony Forming Units (CFU's) per biofilm: compound 100 μM during biofilm formation; for Pretreat (100 μM): percentage Colony Forming Units (CFU's) per biofilm / Pretreat. (25 μM): percentage Colony Forming Units (CFU's) per biofilm: then VAN 20 μg/ml, compared to the untreated (negative) control; for Pretreat. (25 μM): percentage Colony Forming Units (CFU's) per biofilm: compound 25 μM during biofilm formation; for EC50: concentration needed to get 50% killing compared to antibiotic alone (VAN 20 μg/ml) and complete killing, read-out: Pretreat. (EC50). Put shortly: (§1)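 Mu50 biofilms from 10^8 CFU/ml inoculum (4 h adhesion, then 20 h, 37 °C). Pre-treatment: compound (0.1-250 μM) present during biofilm formation, then vancomycin 20 μg/ml alone 24 h; combination: mature biofilm given vancomycin 20 μg/ml plus compound 24 h. Survivors counted by plating versus vancomycin alone.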

For assay [2] the test system is unchanged. In words: Biofilm susceptibility to vancomycin, combination treatment regimen (mature biofilm treated with compound plus vancomycin). Type of assay: cell-based. Particulars: for Combin. (100 μM): percentage Colony Forming Units (CFU's) per biofilm: compound 100 μM together with VAN 20 μg/ml on mature biofilm; for Combin. (100 μM): percentage Colony Forming Units (CFU's) per biofilm / Combin. (25 μM): percentage Colony Forming Units (CFU's) per biofilm: compared to the untreated (negative) control; for Combin. (25 μM): percentage Colony Forming Units (CFU's) per biofilm: compound 25 μM together with VAN 20 μg/ml on mature biofilm; for EC50: concentration needed to get 50% killing compared to antibiotic alone (VAN 20 μg/ml) and complete killing, read-out: Combin. (EC50). Put shortly:
as §1

In general, EC50 refers to the midpoint of the concentration-response curve.

Molecules are shown by their SMILES.

For the compound `O=C(NC[C@H]1OC[C@@](O)(CNC(=O)c2ccccc2)[C@@H]1O)c1ccc(F)c(F)c1` [compound 181, N-(((2R,3R,4S)-4-(benzamidomethyl)-3,4-dihydroxytetrahydrofuran-2-yl)methyl)-3,4-difluorobenzamide], the “Pretreat (100 μM): percentage Colony Forming Units (CFU's) per biofilm” value in assay [1] is on record as 67.74 percentage. In addition, the “Combin. (100 μM): percentage Colony Forming Units (CFU's) per biofilm” value in assay [2] is on record as 59.09 percentage.

Take `O=C(NC[C@]1(O)CO[C@H](CNC(=O)c2c(Cl)cc(Cl)cc2Cl)[C@H]1O)c1ccccc1` [compound 194, N-(((2R,3R,4S)-4-(benzamidomethyl)-3,4-dihydroxytetrahydrofuran-2-yl)methyl)-2,4,6-trichlorobenzamide]: the “Pretreat (100 μM): percentage Colony Forming Units (CFU's) per biofilm” value in assay [1] is reported as 20.50 percentage. Besides, the “Combin. (100 μM): percentage Colony Forming Units (CFU's) per biofilm” value in assay [2] is 13.31 percentage.

Consider `O=C(NC[C@]1(O)CO[C@H](CNC(=O)c2ccccc2Cl)[C@H]1O)c1ccco1` [compound 246, N-(((3S,4R,5R)-5-((2-chlorobenzamido)methyl)-3,4-dihydroxytetrahydrofuran-3-yl)methyl)furan-2-carboxamide], for which the “Pretreat. (25 μM): percentage Colony Forming Units (CFU's) per biofilm” value in assay [1] is 87.98 percentage. The “Combin. (25 μM): percentage Colony Forming Units (CFU's) per biofilm” value in assay [2] is reported as 62.82 percentage.

With `O=C(NC[C@H]1OC[C@@](O)(CNC(=O)c2ccccc2)[C@@H]1O)c1ccc(-c2ccccc2)cc1` [compound 159, N-(((2R,3R,4S)-4-(benzamidomethyl)-3,4-dihydroxytetrahydrofuran-2-yl)methyl)-[1,1′-biphenyl]-4-carboxamide], in assay [1], the “Pretreat (100 μM): percentage Colony Forming Units (CFU's) per biofilm” value is listed as 10.97 percentage and the half-maximal effective concentration (EC50) was found to be 6.38 µM. In assay [2], the “Combin. (100 μM): percentage Colony Forming Units (CFU's) per biofilm” value is recorded as 6.966 percentage and the EC50 is 11.3 µM.

For `O=C(NC[C@H]1OC[C@@](O)(CNC(=O)c2ccccc2)[C@@H]1O)c1ccccc1` [compound 188, N,N′-(((2R,3R,4S)-3,4-dihydroxytetrahydrofuran-2,4-diyl)bis(methylene))dibenzamide], the “Pretreat (100 μM): percentage Colony Forming Units (CFU's) per biofilm” value in assay [1] amounted to 34.36 percentage. The “Combin. (100 μM): percentage Colony Forming Units (CFU's) per biofilm” value in assay [2] was 34.64 percentage.

With `O=C(NC[C@H]1OC(O)[C@@](O)(CNC(=O)c2cccc(O)c2)[C@@H]1O)c1cccc(O)c1` (stereo partly drawn) [compound 19, N,N′-(((2R,3R,4R)-3,4,5-trihydroxytetrahydrofuran-2,4-diyl)bis(methylene))bis(3-hydroxybenzamide)], in assay [1], the “Pretreat (100 μM): percentage Colony Forming Units (CFU's) per biofilm” value is 19.78 percentage and the EC50 came to 38.5 µM. In assay [2], the “Combin. (100 μM): percentage Colony Forming Units (CFU's) per biofilm” value is 27.23 percentage and the EC50 turned out to be 52.3 µM.

As to `O=C(NC[C@H]1OC[C@@](O)(CNC(=O)c2ccccc2)[C@@H]1O)Nc1ccccc1` [compound 223, N-(((3S,4R,5R)-3,4-dihydroxy-5-((3-phenylureido)methyl)tetrahydrofuran-3-yl)methyl)benzamide], the “Pretreat (100 μM): percentage Colony Forming Units (CFU's) per biofilm” value in assay [1] was found to be 23.99 percentage. The “Combin. (100 μM): percentage Colony Forming Units (CFU's) per biofilm” value in assay [2] came out at 18.72 percentage.

Take `O=C(NC[C@]1(O)CO[C@H](CNC(=O)c2ccccc2Cl)[C@H]1O)c1cccc(Cl)c1` [compound 241, 2-chloro-N-(((2R,3R,4S)-4-((3-chlorobenzamido)methyl)-3,4-dihydroxytetrahydrofuran-2-yl)methyl)benzamide]: the “Pretreat. (25 μM): percentage Colony Forming Units (CFU's) per biofilm” value in assay [1] came to 98.17 percentage. The “Combin. (25 μM): percentage Colony Forming Units (CFU's) per biofilm” value in assay [2] is listed as 81.35 percentage.

Regarding `Cn1cc(C(=O)NC[C@H]2OC[C@@](O)(CNC(=O)c3ccccc3)[C@@H]2O)c2ccccc21` [compound 187, N-(((2R,3R,4S)-4-(benzamidomethyl)-3,4-dihydroxytetrahydrofuran-2-yl)methyl)-1-methyl-1H-indole-3-carboxamide], the “Pretreat (100 μM): percentage Colony Forming Units (CFU's) per biofilm” value in assay [1] is recorded as 32.91 percentage. In assay [2], the “Combin. (100 μM): percentage Colony Forming Units (CFU's) per biofilm” value is on record as 29.24 percentage.

Take `O=C(NC[C@H]1OC[C@@](O)(CNC(=O)c2ccccc2)[C@@H]1O)c1ccc(F)cc1` [compound 152, N-(((2R,3R,4S)-4-(benzamidomethyl)-3,4-dihydroxytetrahydrofuran-2-yl)methyl)-4-fluorobenzamide]: the “Pretreat (100 μM): percentage Colony Forming Units (CFU's) per biofilm” value in assay [1] turned out to be 15.07 percentage. The “Combin. (100 μM): percentage Colony Forming Units (CFU's) per biofilm” value in assay [2] amounted to 14.05 percentage.

Turning to `CN(C[C@H]1OC[C@@](O)(CNC(=O)c2ccccc2)[C@@H]1O)C(=O)c1ccccc1` [compound 261, N-(((2R,3R,4S)-4-(benzamidomethyl)-3,4-dihydroxytetrahydrofuran-2-yl)methyl)-N-methylbenzamide], in assay [1], the “Pretreat (100 μM): percentage Colony Forming Units (CFU's) per biofilm” value is on record as 6.09 percentage and the concentration giving a half-maximal response (EC50) was 8.5 µM. In assay [2], the “Combin. (100 μM): percentage Colony Forming Units (CFU's) per biofilm” value is on record as 10.02 percentage and the EC50 amounted to 24.3 µM.

Turning to `CS(=O)(=O)NC[C@H]1OC[C@@](O)(CNC(=O)c2ccccc2)[C@@H]1O` [compound 211, N-(((3S,4R,5R)-3,4-dihydroxy-5-(methylsulfonamidomethyl)tetrahydrofuran-3-yl)methyl)benzamide], in assay [1], the “Pretreat (100 μM): percentage Colony Forming Units (CFU's) per biofilm” value turned out to be 31.02 percentage. Moreover, the “Combin. (100 μM): percentage Colony Forming Units (CFU's) per biofilm” value in assay [2] is on record as 38.03 percentage.

Consider `O=C(NC[C@H]1OC[C@@](O)(CNC(=O)c2ccccc2)[C@@H]1O)c1cncnc1` [compound 205, N-(((2R,3R,4S)-4-(benzamidomethyl)-3,4-dihydroxytetrahydrofuran-2-yl)methyl)pyrimidine-5-carboxamide], for which, in assay [1], the “Pretreat (100 μM): percentage Colony Forming Units (CFU's) per biofilm” value is 6.699 percentage. For the same compound, the “Combin. (100 μM): percentage Colony Forming Units (CFU's) per biofilm” value in assay [2] was 16.51 percentage.

As for `O=C(NC[C@H]1OC[C@@](O)(CNC(=O)c2ccccc2)[C@@H]1O)c1cccc(Cl)c1` [compound 162, N-(((2R,3R,4S)-4-(benzamidomethyl)-3,4-dihydroxytetrahydrofuran-2-yl)methyl)-3-chlorobenzamide], the “Pretreat (100 μM): percentage Colony Forming Units (CFU's) per biofilm” value in assay [1] is on record as 24.07 percentage. Further, the “Combin. (100 μM): percentage Colony Forming Units (CFU's) per biofilm” value in assay [2] is recorded as 29.06 percentage.

Regarding `O=C(NC[C@H]1OC[C@@](O)(CN2C(=O)c3ccccc3C2=O)[C@@H]1O)c1ccccc1Cl` [compound 231, 2-chloro-N-(((2R,3R,4S)-4-((1,3-dioxoisoindolin-2-yl)methyl)-3,4-dihydroxytetrahydrofuran-2-yl)methyl)benzamide], in assay [1], the “Pretreat (100 μM): percentage Colony Forming Units (CFU's) per biofilm” value is reported as 8.18 percentage and the EC50 worked out at 2.63 µM. Further, in assay [2], the “Combin. (100 μM): percentage Colony Forming Units (CFU's) per biofilm” value came out at 28.85 percentage and the EC50 was found to be 39 µM.

As for `O=C(NC[C@]1(O)CO[C@H](CNC(=O)c2ccccc2Cl)[C@H]1O)c1cccc(F)c1` [compound 240, 2-chloro-N-(((2R,3R,4S)-4-((3-fluorobenzamido)methyl)-3,4-dihydroxytetrahydrofuran-2-yl)methyl)benzamide], in assay [1], the “Pretreat. (25 μM): percentage Colony Forming Units (CFU's) per biofilm” value is given as 118.37 percentage. Besides, the “Combin. (25 μM): percentage Colony Forming Units (CFU's) per biofilm” value in assay [2] was found to be 91.32 percentage.

With `O=C(NC[C@H]1OC[C@@](O)(CNC(=O)c2ccccc2)[C@@H]1O)c1ccncc1` [compound 158, N-(((2R,3R,4S)-4-(benzamidomethyl)-3,4-dihydroxytetrahydrofuran-2-yl)methyl)isonicotinamide], in assay [1], the “Pretreat (100 μM): percentage Colony Forming Units (CFU's) per biofilm” value is on record as 7.268 percentage and the EC50 was determined as 9.94 µM. Moreover, in assay [2], the “Combin. (100 μM): percentage Colony Forming Units (CFU's) per biofilm” value turned out to be 13.89 percentage and the EC50 came to 19.2 µM.

Regarding `O=C(NC[C@]1(O)CO[C@H](CNC(=O)c2ccccc2Br)[C@H]1O)c1ccccc1` [compound 178, N-(((2R,3R,4S)-4-(benzamidomethyl)-3,4-dihydroxytetrahydrofuran-2-yl)methyl)-2-bromobenzamide], in assay [1], the “Pretreat (100 μM): percentage Colony Forming Units (CFU's) per biofilm” value is 4.10 percentage and the concentration for a half-maximal effect (EC50) was 9.85 µM. For the same compound, in assay [2], the “Combin. (100 μM): percentage Colony Forming Units (CFU's) per biofilm” value is 17.51 percentage and the EC50 is 19.7 µM.

For `CN(C[C@]1(O)CO[C@H](CNC(=O)c2ccccc2)[C@H]1O)C(=O)c1ccccc1` [compound 229, N-(((3S,4R,5R)-5-(benzamidomethyl)-3,4-dihydroxytetrahydrofuran-3-yl)methyl)-N-methylbenzamide], in assay [1], the “Pretreat (100 μM): percentage Colony Forming Units (CFU's) per biofilm” value is given as 7.17 percentage and the concentration giving a half-maximal response (EC50) was determined as 5.82 µM. In addition, in assay [2], the “Combin. (100 μM): percentage Colony Forming Units (CFU's) per biofilm” value worked out at 11.15 percentage and the EC50 was 8.92 µM.

Take `O=C(NC[C@]1(O)CO[C@H](CN2Cc3ccccc3C2=O)[C@H]1O)c1ccccc1` [compound 230, N-(((3S,4R,5R)-3,4-dihydroxy-5-((1-oxoisoindolin-2-yl)methyl)tetrahydrofuran-3-yl)methyl)benzamide]: in assay [1], the “Pretreat (100 μM): percentage Colony Forming Units (CFU's) per biofilm” value is 24.90 percentage and the 50% effective concentration (EC50) came out at 57.7 µM. In assay [2], the “Combin. (100 μM): percentage Colony Forming Units (CFU's) per biofilm” value turned out to be 30.15 percentage and the half-maximal effective concentration (EC50) was 60.2 µM.

As to `O=C(NC[C@]1(O)CO[C@H](CNS(=O)(=O)c2ccccc2Cl)[C@H]1O)c1ccccc1` [compound 218, N-(((3S,4R,5R)-5-(((2-chlorophenyl)sulfonamido)methyl)-3,4-dihydroxytetrahydrofuran-3-yl)methyl)benzamide], the “Pretreat (100 μM): percentage Colony Forming Units (CFU's) per biofilm” value in assay [1] worked out at 35.03 percentage. Further, the “Combin. (100 μM): percentage Colony Forming Units (CFU's) per biofilm” value in assay [2] came to 26.88 percentage.
